Experiment [1] concerns HEK293. In words: Effect to arrest S-phase on HEK 293 cells at 10 uM was determined. Type of experiment: functional, Homo sapiens.
For experiment [2], the system named is HEK293. Description: Effect to arrest GI-phase on HEK 293 cells at 10 uM was determined. It is filed as functional, Homo sapiens.
Experiment [3] has as its system HEK293. In words: Effect to arrest G2/M-phase on HEK 293 cells at 10 uM was determined. Type of experiment: functional, Homo sapiens.
The subject of experiment [4] is HEK293. In words: Effect to arrest S-phase on HEK 293 cells at 50 uM was determined; Not significant. Type of experiment: functional, cell-based. Particulars: Homo sapiens.
Experiment [5] relates to HEK293. Description: Effect to arrest G2/M-phase on HEK 293 cells at 50 uM was determined. Type of experiment: functional, Homo sapiens.
The subject of experiment [6] is HEK293. In words: Effect to arrest S-phase on HEK 293 cells at 1 uM was determined. Type of experiment: functional, Homo sapiens.
In experiment [7] the test system is HEK293. Description: Effect to arrest GI-phase on HEK 293 cells at 1 uM was determined. Type of experiment: functional, Homo sapiens.
Experiment [8] has as its system HEK293. In words: Effect to arrest S-phase on HEK 293 cells at 50 uM was determined. It is filed as functional, Homo sapiens.
Experiment [9] concerns HEK293. In words: Effect to arrest GI-phase on HEK 293 cells at 50 uM was determined. Type of experiment: functional, Homo sapiens.
For experiment [10], the system named is HEK293. In words: Effect to arrest G2/M-phase on HEK 293 cells at 1 uM was determined. Type of experiment: functional, Homo sapiens.
Experiment [11] deals with HEK293. Description: Compound was tested for inhibition of HEK293 proliferation. Type of experiment: functional, cell-based. Particulars: Homo sapiens.
For experiment [12], the system named is HEK293. Description: Effect to arrest G2/M-phase on HEK 293 cells at 25 uM was determined. Type of experiment: functional, Homo sapiens.
In experiment [13] the test system is HEK293. Description: Effect to arrest S-phase on HEK 293 cells at 25 uM was determined. It is filed as functional, Homo sapiens.
The test system of experiment [14] is HEK293. In words: Effect to arrest GI-phase on HEK 293 cells at 25 uM was determined. It is filed as functional, Homo sapiens.

As a reminder, the EC50 is the concentration at which the effect is half-maximal.

Structures are written as SMILES. Calls of active or inactive are those of the source. The rule behind the calls is not given here.

For the compound `COc1cc2c(c(OC)c1OC)-c1ccc(OC)c(=O)cc1[C@@H](NC(C)=O)CC2` [COLCHICINE], the Effect with HEK293 [1] was found to be 14%; in the experiment with HEK293 [2], 3%; in the experiment on HEK293 [3] it was 83%.

Turning to `COc1ccc2c(c1-c1ccsc1)C(=O)O[C@@H]2[C@H]1c2c(cc3c(c2OC)OCO3)CCN1C`, the result in the experiment on HEK293 [4] was inactive.

For the compound `COc1cc(COc2c(OC)ccc3c2C(=O)O[C@@H]3[C@H]2c3c(cc4c(c3OC)OCO4)CCN2C)cc(OC)c1OC`, the Effect with HEK293 [5] was determined as 6%; with HEK293 [6], 65%; in the experiment with HEK293 [7], 24%; with HEK293 [1], 65%; in the experiment with HEK293 [8], 84%; in the experiment with HEK293 [2], 19%. In addition, the results for the Effect in the experiment on HEK293 [9], with HEK293 [10] and in the experiment with HEK293 [3] were 13%, 11% and 16%, respectively. This compound also yielded an EC50 in the experiment with HEK293 [11] of 1.9 µM.

Turning to `COc1ccc2c(c1-c1ccc(C(C)(C)C)cc1)C(=O)O[C@@H]2[C@H]1c2c(cc3c(c2OC)OCO3)CCN1C`, the result in the experiment with HEK293 [4] was inactive.

`COc1ccc2c(c1OCc1ccsc1)C(=O)O[C@@H]2[C@H]1c2c(cc3c(c2OC)OCO3)CCN1C`: the Effect turned out to be 10% with HEK293 [12], 62% in the experiment on HEK293 [13] and 28% in the experiment with HEK293 [14].

`COc1ccc2c(c1-c1ccc(N(C)C)cc1)C(=O)O[C@@H]2[C@H]1c2c(cc3c(c2OC)OCO3)CCN1C`: in the experiment with HEK293 [4], the outcome was inactive.

As to `COc1cc(-c2c(OC)ccc3c2C(=O)O[C@@H]3[C@H]2c3c(cc4c(c3OC)OCO4)CCN2C)cc(OC)c1OC`, in the experiment on HEK293 [4], the result was inactive.

Take `COc1ccc2c(c1SCc1ccccc1)C(=O)O[C@@H]2[C@H]1c2c(cc3c(c2OC)OCO3)CCN1C`: the Effect in the experiment on HEK293 [1] was determined as 65%; in the experiment with HEK293 [2], 24%; with HEK293 [3], 11%.

Turning to `COc1ccc2c(c1OCc1ccccc1)C(=O)OC2[C@H]1c2c(cc3c(c2OC)OCO3)CCN1C` (stereo not given in full), the Effect came to 15% in the experiment on HEK293 [12]; 10% in the experiment on HEK293 [5]; 57% with HEK293 [1]; 71% in the experiment on HEK293 [13]; 67% in the experiment with HEK293 [8]; 28% in the experiment with HEK293 [2]. In addition, the Effect with HEK293 [9] came out at 23%; in the experiment on HEK293 [3], 17%; with HEK293 [14], 12%. Also, in the experiment with HEK293 [11], the EC50 came out at 15 µM.

On to `COc1ccc2c(c1OCc1csc(C)n1)C(=O)O[C@@H]2[C@H]1c2c(cc3c(c2OC)OCO3)CCN1C`, for which the Effect with HEK293 [1] turned out to be 62%; in the experiment on HEK293 [2], 28%; in the experiment with HEK293 [3], 10%.

For the compound `COc1ccc2c(c1OC)C(=O)O[C@@H]2[C@H]1c2c(cc3c(c2OC)OCO3)CCN1C` [NOSCAPINE], the Effect in the experiment on HEK293 [5] was 76%; in the experiment with HEK293 [8], 18%; in the experiment on HEK293 [9], 6%.

Consider `COc1ccc2c(c1-c1cc(F)cc(F)c1)C(=O)O[C@@H]2[C@H]1c2c(cc3c(c2OC)OCO3)CCN1C`, for which the result with HEK293 [4] was inactive.

Source of the values: ChEMBL document CHEMBL1143587, “Discovery of S-phase arresting agents derived from noscapine” (J Med Chem, 2005).
